Assay results: publication PMC5453931, “Cathelicidin-trypsin inhibitor loop conjugate represents a promising antibiotic candidate with protease stability” (Scientific Reports, 2017)
Values after ≈ are worked out from the molar mass of the structure shown. Read-outs that look alike come from different tables or passages of the source.

Columns and labels:
E. coli 08040726 [1] = assay type: cell-based; settings: Gram-negative, two-fold broth microdilution, MH broth, 37 °C, 18 h, mean of three independent experiments in duplicates
Description: (§1) A two-fold broth microdilution method described in our previous paper was used to determine the antimicrobial activities of parental and hybrid peptides. More than 30 strains including Gram-negative bacteria, Gram-positive bacteria and fungi were used in the current assay, in which the standard strains were stored in our lab and the clinical strains were collected from local hospitals. Briefly, bacteria were incubated in Mueller-Hinton broth (MH broth) at 37 °C to exponential phase and diluted to 10^6 CFU/mL. A serial dilution of peptide sample were prepared in 96-well microtiter plates (50 μL) and mixed with equal volume of microbial inoculums (50 μL). The plate was slowly shaken in the microbial incubator, and measured at A595 after incubation at 37 °C for 18 h. The minimal concentrations at which no microbial growth occurred were recorded as MIC (minimal inhibitory concentration) values. The traditional antibiotic ampicillin was used as positive control. The results are shown in an average of the MICs obtained from three independent experiments.

E. coli 08040726 [2] = experiment: Bacterial killing kinetic assay, colony counting; assay type: cell-based
Description: The bacterial killing kinetics of the hybrid peptides against E. coli 08040726 was determined by counting the changes in the viable bacterial clones after peptide treatment. The experiment was carried out according to the method described previously with minor modifications. Fresh colonies of the bacteria were incubated in MH broth at 37 °C for 12 h and diluted to 10^6 CFU/in fresh MH broth. The hybrid peptide was added to the bacterial suspension with a final concentration of 1x and 5x corresponding MICs, and incubated at 37 °C for 0, 10, 20, 30, 45, 60, 90, 120, and 180 mins. At each time point, aliquots (50 μL) were removed and diluted with fresh MH broth for 1000 times. […] of the dilutions were coated on MH agar plates, incubated overnight at 37 °C, and the viable colonies were counted. Ampicillin was used as positive control and sterile deionized water was used as negative control.

[3] = tested on: Bacillus subtilis 08042313; experiment: microbe, parasite or virus in culture; assay type: cell-based; settings: Bacillus subtilis, 08042313, 18 h, read-out: MIC Bacillus subtilis 08042313
Procedure, shortened: (§2)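 Growth at A595 after 18 h at 37 °C defines the MIC, taken as the minimal peptide concentration giving no microbial growth. Organisms were grown to exponential phase in Mueller-Hinton broth and diluted to 10^6 CFU/mL prior to combining with an equal volume of peptide dilutions.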

P. Aeruginosa 08021015 = experiment: microbe, parasite or virus in culture; assay type: cell-based; settings: Pseudomonas aeruginosa, 18 h, read-out: MIC P. Aeruginosa 08021015
Procedure, shortened: as §2

[4] = tested on: Enterococcus faecium 08052315; experiment: microbe, parasite or virus in culture; assay type: cell-based; settings: Enterococcus faecium, 08052315, 18 h, read-out: MIC Enterococcus faecium 08052315
Procedure, shortened: as §2

S. Maltophilia 090223 = experiment: microbe, parasite or virus in culture; assay type: cell-based; settings: Stenotrophomonas maltophilia, 18 h, read-out: MIC S. Maltophilia 090223
Procedure, shortened: as §2

Aeromonas veronii = experiment: microbe, parasite or virus in culture; assay type: cell-based; settings: Aeromonas veronii, 18 h, read-out: MIC Aeromonas veronii
Procedure, shortened: as §2

[5] = tested on: Shigella dysenteriae 0804203; experiment: microbe, parasite or virus in culture; assay type: cell-based; settings: Shigella dysenteriae, 0804203, 18 h, read-out: MIC Shigella dysenteriae 0804203
Procedure, shortened: as §2

S. Aureus 08032810 = experiment: microbe, parasite or virus in culture; assay type: cell-based; settings: Staphylococcus aureus, 18 h, read-out: MIC S. Aureus 08032810
Procedure, shortened: as §2

Vibrio brasiiensis = experiment: microbe, parasite or virus in culture; assay type: cell-based; settings: Vibrio, 18 h, read-out: MIC Vibrio brasiiensis
Procedure, shortened: as §2

S. Aureus 08032706 = experiment: microbe, parasite or virus in culture; assay type: cell-based; settings: Staphylococcus aureus, 18 h, read-out: MIC S. Aureus 08032706
Procedure, shortened: as §2

[6] = tested on: Nocardia asteroides 08052412; experiment: microbe, parasite or virus in culture; assay type: cell-based; settings: Nocardia asteroides, 08052412, 18 h, read-out: MIC Nocardia asteroides 08052412
Procedure, shortened: as §2

S. Aureus 08032615 = experiment: microbe, parasite or virus in culture; assay type: cell-based; settings: Staphylococcus aureus, 18 h, read-out: MIC S. Aureus 08032615
Procedure, shortened: as §2

[7] = tested on: Escherichia coli ATCC25922; experiment: microbe, parasite or virus in culture; assay type: cell-based; settings: Escherichia coli, ATCC25922, 18 h, read-out: MIC Escherichia coli ATCC25922
Procedure, shortened: as §2

Edwardsiella tarda = experiment: microbe, parasite or virus in culture; assay type: cell-based; settings: Edwardsiella tarda, 18 h, read-out: MIC Edwardsiella tarda
Procedure, shortened: as §2

Candida glabrata 08A802 = experiment: microbe, parasite or virus in culture; assay type: cell-based; settings: Nakaseomyces glabratus, 08A802, 18 h, read-out: MIC Candida glabrata 08A802
Procedure, shortened: as §2

Vibrio harveyi = experiment: microbe, parasite or virus in culture; assay type: cell-based; settings: Vibrio harveyi, 18 h, read-out: MIC Vibrio harveyi
Procedure, shortened: as §2

E. Coli 08032823 = experiment: microbe, parasite or virus in culture; assay type: cell-based; settings: Escherichia coli, 18 h, read-out: MIC E. Coli 08032823
Procedure, shortened: as §2

Aeromonas sobria = experiment: microbe, parasite or virus in culture; assay type: cell-based; settings: Aeromonas sobria, 18 h, read-out: MIC Aeromonas sobria
Procedure, shortened: as §2

Proteus mirabilis 1376 = experiment: microbe, parasite or virus in culture; assay type: cell-based; settings: Proteus mirabilis, 1376, 18 h, read-out: MIC Proteus mirabilis 1376
Procedure, shortened: as §2

K. Pneumoniae 08031012 = experiment: microbe, parasite or virus in culture; assay type: cell-based; settings: Klebsiella pneumoniae, 18 h, read-out: MIC K. Pneumoniae 08031012
Procedure, shortened: as §2

[8] = tested on: Candida albicans 08030102; experiment: microbe, parasite or virus in culture; assay type: cell-based; settings: Candida albicans, 08030102, 18 h, read-out: MIC Candida albicans 08030102
Procedure, shortened: as §2

K. Pneumoniae 08040202 = experiment: microbe, parasite or virus in culture; assay type: cell-based; settings: Klebsiella pneumoniae, 18 h, read-out: MIC K. Pneumoniae 08040202
Procedure, shortened: as §2

Vibrio cholerae = experiment: microbe, parasite or virus in culture; assay type: cell-based; settings: Vibrio cholerae, 18 h, read-out: MIC Vibrio cholerae
E. Coli 08032813 = experiment: MIC, two-fold broth microdilution; assay type: cell-based; settings: Escherichia coli, 18 h, read-out: MIC E. Coli 08032813
Procedure, shortened: as §2

Vibrio Parahaemolyticus = experiment: MIC, two-fold broth microdilution; assay type: cell-based; settings: Vibrio parahaemolyticus, 18 h, read-out: MIC Vibrio Parahaemolyticus
Procedure, shortened: as §2

[9] = tested on: Staphylococcus epidermidis; experiment: MIC, two-fold broth microdilution; assay type: cell-based; settings: Staphylococcus epidermidis, 18 h, read-out: MIC Staphylococcus epidermidis
Procedure, shortened: as §2

08030209 = experiment: microbe, parasite or virus in culture; assay type: cell-based, Arcyria cinerea; settings: Arcyria cinerea, 18 h, read-out: MIC Arcyria cinerea 08030209
Description: as §1

E. coli 08040726 [10] = experiment: MIC, two-fold broth microdilution (second listing of the strain number); assay type: cell-based; settings: Gram-negative, MH broth, 37 °C, 18 h, mean of three independent experiments in duplicates
Procedure, shortened: as §2

In the case of CC1(C)S[C@@H]2[C@H](NC(=O)[C@H](N)c3ccccc3)C(=O)N2[C@H]1C(=O)O [Ampicillin, reference compound], the “MIC E. coli 08040726” value (E. coli 08040726 [1]) was 9.38 µg/mL (≈ 26.8 µM), the “MIC E. coli 08040726” value (E. coli 08040726 [1]; listed as ampicillin) was 0.12 µg/mL (≈ 0.343 µM) and the “time of killing toward E. coli” value (E. coli 08040726 [2]; 1xMIC) was 6 h. For the same compound, the “time of killing toward E. coli” value (E. coli 08040726 [2]; 5xMIC) was 3 h, the MIC [3] was 75 µg/mL (≈ 215 µM) and the MIC (P. Aeruginosa 08021015) was 9.38 µg/mL (≈ 26.8 µM). The MIC [4] was greater than 200 µg/mL, the MIC (S. Maltophilia 090223) was greater than 200 µg/mL and the MIC (Aeromonas veronii) was greater than 200 µg/mL. For the same compound, the MIC [5] was 75 µg/mL (≈ 215 µM), the MIC (S. Aureus 08032810) was greater than 200 µg/mL and the MIC (Vibrio brasiiensis) was greater than 200 µg/mL. For the same compound, the MIC (S. Aureus 08032706) was 18.8 µg/mL (≈ 53.7 µM), the MIC [6] was greater than 200 µg/mL and the MIC (S. Aureus 08032615) was 9.38 µg/mL (≈ 26.8 µM). It also gave an MIC [7] of 4.69 µg/mL (≈ 13.4 µM), an MIC (Edwardsiella tarda) greater than 200 µg/mL and an MIC (Candida glabrata 08A802) of 18.8 µg/mL (≈ 53.7 µM). It also gave an MIC (Vibrio harveyi) of 37.5 µg/mL (≈ 107 µM), an MIC (E. Coli 08032823) greater than 200 µg/mL and an MIC (Aeromonas sobria) greater than 200 µg/mL. The MIC (Proteus mirabilis 1376) was 75 µg/mL (≈ 215 µM), the MIC (K. Pneumoniae 08031012) was greater than 200 µg/mL and the MIC [8] was 18.8 µg/mL (≈ 53.7 µM). It also gave an MIC (K. Pneumoniae 08040202) greater than 200 µg/mL, an MIC (Vibrio cholerae) greater than 200 µg/mL and an MIC (E. Coli 08032813) greater than 200 µg/mL. The MIC (Vibrio Parahaemolyticus) was 18.8 µg/mL (≈ 53.7 µM), the MIC [9] was greater than 200 µg/mL and the MIC 08030209 was greater than 200 µg/mL. The “MIC E. Coli 08040726 (second line with this strain number)” value (E. coli 08040726 [10]) was “— (no detectable activity in MIC assay in dose of 200 µg/mL or in trypsin inhibition assay at concentration of 160 μg/mL)”.
